As a reminder, the TGI is how far tumour growth fell short of that in controls. A higher TGI goes with a stronger effect on the tumour. Broadly, the EC50 is the concentration that produces a half-maximal response.

Consider 6 compounds from patent publication US20260191849A1, “PHARMACEUTICAL COMPOSITION FOR TREATMENT OF CANCER” (WIGEN BIOMEDICINE TECHNOLOGY (SHANGHAI) CO., LTD., priority 2022, published 2026).

Test [1] has as its system HT29 subcutaneous xenograft tumors. Kind of test: In vivo pharmacodynamic study of combination therapy, HT29 subcutaneous xenograft tumor model of mice (Biological Example 14). Details: species or system BALB/c nude mice. An excerpt: BALB/c nude mice were each inoculated subcutaneously with 5×10^6 HT29 cells on the left dorsal side. After the tumors grew to 100-150 mm^3, the mice were randomly divided into the following groups for intragastric administration once daily for 14 consecutive days: group 1: vehicle control group; group 2: AMG650 (50 mpk, PO, QD); group 3: compound 714 (50 mpk, PO, QD); group 4: AMG650 (50 mpk, PO, QD)+Onvasertib (20 mpk, PO, QD); group 5: compound 714 (50 mpk, PO, QD)+Onvasertib (20 mpk, PO, QD); and group 6: Onvasertib (20 mpk, PO, QD). The administration to all the groups was stopped on day 15, and the tumor growth continued to be observed until day 21. The tumor volume was measured twice weekly and at the end of administration. […]

Test [2] shares this test system. Kind of test: In vivo pharmacodynamic study, HT29 subcutaneous xenograft tumor model of mice (Biological Example 3). Details: species or system BALB/c nude mice. Particulars: for Tumor volume on day 1 of administration / TGI / Tumor volume on day 28 of administration: 80 mg/kg intragastric once daily; for Tumor volume on day 1 of administration: day 1 (baseline); for TGI / Tumor volume on day 28 of administration: day 28; for inhibitory effects on the HT29 subcutaneous xenograft tumor in mice compared with AMG650: 80 mg/kg, in words. As for the experimental part:
BALB/c nude mice were each inoculated subcutaneously with 5×10^6 HT29 cells on the left dorsal side. After the tumors grew to 100-150 mm^3, the mice were randomly divided into the following groups for intragastric administration once daily: group 1: vehicle control group; group 2: compound 661 (80 mg/kg); group 3: compound 669 (80 mg/kg); group 4: compound 677 (80 mg/kg); group 5: compound 714 (80 mg/kg); group 6: compound 727 (80 mg/kg); group 7: compound 740 (80 mg/kg); and group 8: AMG65 (80 mg/kg). The tumor volume was measured twice weekly and at the end of administration. […].

Test [3] concerns Histone H3 Ser10 site in HT29 cells. Kind of test: Phosphorylation assay of histone H3 Ser10 site in HT29 cells, immunofluorescence (Biological Example 4). The conditions noted are these: Homo sapiens, HT-29, 6 h, FITC/DAPI. It is filed as cell-based. Here is the method:
HT29 cells were seeded in a 96-well plate (Fisher 160376) at 8000 cells/well. The next day, the serially diluted compounds were added. Six hours after the addition of the compounds, the cells were washed once with 1×PBS, immobilized with 4% PFA for 15 min, further washed three times with 1×PBS, and permeabilized with 0.02% Triton-X100 for 10 min. Then, blocking was performed for 15-30 min using a blocking buffer. After a primary antibody (Phospho-Histone H3 (Ser10)) at a 1:3000 dilution was added, the well plate was left to stand at 4° C. overnight. The next day, the cells were washed three times with 1×PBS, and then a secondary antibody (Fluorescein (FITC)-conjugated Affinipure Goat Anti-Rabbit IgG (H+L)) at a 1:1000 dilution was added. The cells were incubated in the dark for 1-2 h and then washed three times with 1×PBS. Subsequently, the cell nuclei were stained using DAPI. The ratio of phosphorylation (FITC/DAPI) at H3 Ser10 site in HT29 cells was quantified. The effects of the compounds on Phospho-Histone H3 were evaluated, and EC50 values of the compounds were calculated.

Where [4] appears, read: PO QD 14 days, AMG650/714 50 mpk, Onvasertib 20 mpk, day 15.
Setting [5] is: PO QD 14 days, AMG650/714 50 mpk, Onvasertib 20 mpk, day 21, after stop of administration.

`COc1ccc(NC(=O)c2ccc(NS(=O)(=O)CCOC(=O)[C@@H](N)C(C)C)cc2N2CCC3(CC2)CC3)nc1N1CCC(F)(F)CC1` [Compound 714]: the “Tumor volume on day 1 of administration” value in test [1] (PO QD 14 days, AMG650/714 50 mpk, Onvasertib 20 mpk, day 1 (baseline)) is given as 134 mm^3. Also, in test [1] (setting [4]), the “TGI on day 15” value worked out at 121% and the “Tumor volume on day 15 of administration” value was 17 mm^3. For the same compound, in test [1] (setting [5]), the “TGI on day 21” value came to 110% and the “Tumor volume on day 21 of administration” value was 49 mm^3. In addition, the “tumor inhibitory effect, combined use with the PLK1 inhibitor Onvasertib compared with monotherapy” value in test [1] (combined with Onvasertib, in words) is given as “stronger tumor inhibitory effect”. The “therapeutic efficacy of monotherapy in HT29-bearing mice” value in test [1] (monotherapy, in words) was “able to inhibit tumor growth”. In test [2], the “Tumor volume on day 1 of administration” value is listed as 121 mm^3, the TGI worked out at 80%, the “Tumor volume on day 28 of administration” value is listed as 424 mm^3 and the “inhibitory effects on the HT29 subcutaneous xenograft tumor in mice compared with AMG650” value (shortened to “inhibitory effects … compared with AMG650”) is “stronger inhibitory effects”. Also, in test [3], the EC50 came out at 39.2 nM.

The compound `COc1ccc(C(=O)Nc2ccc(NS(=O)(=O)CCOC(C)=O)cc2N2CCC3(CC2)CC3)nc1N1CCC(F)(F)CC1` [Compound 669] registered a TGI in test [2] of 30%.

Turning to `COc1ccc(NC(=O)c2ccc(S(=O)(=O)NCCOC(=O)[C@@H](N)C(C)C)cc2N2CCC3(CC2)CC3)nc1N1CCC(F)(F)CC1` [Compound 740], in test [2], the “Tumor volume on day 1 of administration” value was 121 mm^3, the TGI is recorded as 67%, the “Tumor volume on day 28 of administration” value is given as 605 mm^3 and the “inhibitory effects … compared with AMG650” value is listed as “stronger inhibitory effects”.

In test [2], `COc1ccc(NC(=O)c2ccc(NS(=O)(=O)CCOC(C)=O)cc2N2CCC3(CC2)CC3)nc1N1CCC(F)(F)CC1` [Compound 661] registered a TGI of 61%.

In test [2], `COc1ccc(NC(=O)c2ccc(S(=O)(=O)NCCOC(C)=O)cc2N2CCC3(CC2)CC3)nc1N1CCC(F)(F)CC1` [Compound 677] returned a TGI of 55%.

For the compound `COc1ccc(C(=O)Nc2ccc(NS(=O)(=O)CCOC(=O)[C@@H](N)C(C)C)cc2N2CCC3(CC2)CC3)nc1N1CCC(F)(F)CC1` [Compound 727], in test [2], the “Tumor volume on day 1 of administration” value is on record as 121 mm^3, the inhibition of tumour growth (TGI) is listed as 73%, the “Tumor volume on day 28 of administration” value is recorded as 519 mm^3 and the “inhibitory effects … compared with AMG650” value is listed as “stronger inhibitory effects”.
